Results on six compounds are retold here after ChEMBL document CHEMBL5465560, “Selectivity Literature for EUbOPEN Chemogenomic Library” (2024).

For test [1], the target named is TGF-beta receptor type-2 (Homo sapiens) (UniProt P37173). The settings on record: at 10 µM.
In test [2] the target is Homeodomain-interacting protein kinase 3 (Homo sapiens, UniProt Q9H422). The experiment in a line: Selectivity interaction (Kinase panel (Z-LYTE Assay)) EUB0001632a HIPK3. The settings on record: at 10 µM.
Homeodomain-interacting protein kinase 3, sequence (Q9H422 whole entry, looked up): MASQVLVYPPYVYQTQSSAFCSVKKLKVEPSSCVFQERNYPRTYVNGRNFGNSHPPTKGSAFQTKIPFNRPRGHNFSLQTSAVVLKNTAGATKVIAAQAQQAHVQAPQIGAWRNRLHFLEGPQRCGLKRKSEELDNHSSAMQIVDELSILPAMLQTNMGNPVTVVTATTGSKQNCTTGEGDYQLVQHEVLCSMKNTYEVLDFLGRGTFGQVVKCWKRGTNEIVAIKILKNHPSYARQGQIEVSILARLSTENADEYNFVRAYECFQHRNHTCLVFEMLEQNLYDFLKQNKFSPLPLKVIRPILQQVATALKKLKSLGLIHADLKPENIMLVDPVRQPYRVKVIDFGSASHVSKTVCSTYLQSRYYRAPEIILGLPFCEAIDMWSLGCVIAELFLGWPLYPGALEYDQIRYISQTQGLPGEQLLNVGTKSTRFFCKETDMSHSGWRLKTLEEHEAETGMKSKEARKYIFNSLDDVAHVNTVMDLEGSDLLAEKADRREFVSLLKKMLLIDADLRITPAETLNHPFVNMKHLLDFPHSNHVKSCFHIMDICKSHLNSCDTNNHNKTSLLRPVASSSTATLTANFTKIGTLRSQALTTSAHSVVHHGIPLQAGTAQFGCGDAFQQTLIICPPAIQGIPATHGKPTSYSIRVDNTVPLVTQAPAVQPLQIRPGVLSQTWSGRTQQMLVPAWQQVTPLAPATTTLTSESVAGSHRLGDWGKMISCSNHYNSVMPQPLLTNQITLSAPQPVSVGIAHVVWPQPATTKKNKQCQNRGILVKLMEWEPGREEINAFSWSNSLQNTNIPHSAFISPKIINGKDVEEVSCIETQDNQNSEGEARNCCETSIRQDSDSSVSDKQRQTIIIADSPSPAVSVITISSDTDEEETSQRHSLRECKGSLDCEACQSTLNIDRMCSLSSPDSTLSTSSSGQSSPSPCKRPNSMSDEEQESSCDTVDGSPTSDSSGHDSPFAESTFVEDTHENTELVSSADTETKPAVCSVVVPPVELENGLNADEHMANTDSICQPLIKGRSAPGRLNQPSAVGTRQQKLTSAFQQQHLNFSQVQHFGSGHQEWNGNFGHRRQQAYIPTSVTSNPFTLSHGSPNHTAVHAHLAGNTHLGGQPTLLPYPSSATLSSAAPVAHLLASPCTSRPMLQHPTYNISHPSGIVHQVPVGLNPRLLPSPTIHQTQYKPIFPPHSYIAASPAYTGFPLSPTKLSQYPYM
Test [3] concerns the target Mitogen-activated protein kinase 10 (Homo sapiens, UniProt P53779). As to the kind of experiment: Selectivity interaction (LanthaScreen Eu Kinase Binding Assay) EUB0001632a MAPK10. The conditions noted are these: at 10 µM.
Test [4] has as its target T1, Histone-arginine methyltransferase CARM1 (Homo sapiens) (UniProt Q86X55).
T1 sequence (whole entry): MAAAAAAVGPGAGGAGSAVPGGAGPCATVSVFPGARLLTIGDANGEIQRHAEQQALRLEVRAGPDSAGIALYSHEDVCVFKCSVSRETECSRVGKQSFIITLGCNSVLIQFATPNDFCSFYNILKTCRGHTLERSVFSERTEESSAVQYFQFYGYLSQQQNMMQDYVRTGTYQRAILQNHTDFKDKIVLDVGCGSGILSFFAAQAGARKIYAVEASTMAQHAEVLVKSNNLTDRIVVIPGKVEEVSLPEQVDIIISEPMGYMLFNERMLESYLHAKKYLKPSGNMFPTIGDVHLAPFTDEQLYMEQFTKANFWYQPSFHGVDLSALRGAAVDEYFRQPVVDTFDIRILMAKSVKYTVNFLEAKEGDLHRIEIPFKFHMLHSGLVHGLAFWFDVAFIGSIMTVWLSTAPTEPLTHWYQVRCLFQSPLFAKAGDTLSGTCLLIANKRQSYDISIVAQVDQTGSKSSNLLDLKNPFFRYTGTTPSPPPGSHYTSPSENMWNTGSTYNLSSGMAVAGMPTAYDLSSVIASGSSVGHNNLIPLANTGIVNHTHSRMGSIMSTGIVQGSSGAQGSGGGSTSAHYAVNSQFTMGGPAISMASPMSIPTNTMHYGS
The experiment in a line: Selectivity interaction (Methyltransferase screen (radiometric assays, panel of 8 PRMTs, 21 protein lysine methyltransferases, 3 DNA methyltransferases, and one RNA methyltransferase)) EUB0000272b CARM1.

Test [5] concerns the target T2, 3-phosphoinositide-dependent protein kinase 1 (Homo sapiens) (UniProt O15530).
T2 sequence (whole entry): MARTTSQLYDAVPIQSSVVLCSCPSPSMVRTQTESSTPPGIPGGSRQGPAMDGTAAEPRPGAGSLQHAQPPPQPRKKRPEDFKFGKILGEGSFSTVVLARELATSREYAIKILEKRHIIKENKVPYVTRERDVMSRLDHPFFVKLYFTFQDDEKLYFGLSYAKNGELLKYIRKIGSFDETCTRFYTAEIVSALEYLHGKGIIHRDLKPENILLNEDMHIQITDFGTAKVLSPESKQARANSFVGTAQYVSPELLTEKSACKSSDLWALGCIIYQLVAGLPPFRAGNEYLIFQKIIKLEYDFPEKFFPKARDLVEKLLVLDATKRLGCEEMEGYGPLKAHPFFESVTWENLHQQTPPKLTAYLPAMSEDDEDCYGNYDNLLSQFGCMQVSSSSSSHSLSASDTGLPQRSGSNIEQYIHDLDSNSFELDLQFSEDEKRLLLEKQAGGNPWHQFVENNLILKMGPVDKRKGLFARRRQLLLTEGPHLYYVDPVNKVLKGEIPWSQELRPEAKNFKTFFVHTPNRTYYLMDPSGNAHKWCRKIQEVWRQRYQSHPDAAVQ
As to the kind of experiment: Selectivity interaction (KinomeScan (DiscoverX)) EUB0000607a PDPK1. The settings on record: at 10 µM.

Test [6] has as its target Calcium/calmodulin-dependent protein kinase kinase 2 (Homo sapiens) (UniProt Q96RR4). The experiment in a line: Selectivity interaction (KinomeScan (DiscoverX)) EUB0000229b CAMKK2. The conditions noted are these: at 10 µM.
Test [7] concerns the target Cyclin-dependent kinase 8 (Homo sapiens, UniProt P49336). The experiment in a line: Selectivity interaction (ActivX KiNativ screen (ex vivo kinase selectivity in human PBMCs)) EUB0001619a CDK8. The class given is cell-based. The conditions noted are these: PBMC, at 1 µM.
In test [8] the target is T3, Kinase suppressor of Ras 1 (Homo sapiens) (UniProt Q8IVT5).
T3 sequence (whole entry): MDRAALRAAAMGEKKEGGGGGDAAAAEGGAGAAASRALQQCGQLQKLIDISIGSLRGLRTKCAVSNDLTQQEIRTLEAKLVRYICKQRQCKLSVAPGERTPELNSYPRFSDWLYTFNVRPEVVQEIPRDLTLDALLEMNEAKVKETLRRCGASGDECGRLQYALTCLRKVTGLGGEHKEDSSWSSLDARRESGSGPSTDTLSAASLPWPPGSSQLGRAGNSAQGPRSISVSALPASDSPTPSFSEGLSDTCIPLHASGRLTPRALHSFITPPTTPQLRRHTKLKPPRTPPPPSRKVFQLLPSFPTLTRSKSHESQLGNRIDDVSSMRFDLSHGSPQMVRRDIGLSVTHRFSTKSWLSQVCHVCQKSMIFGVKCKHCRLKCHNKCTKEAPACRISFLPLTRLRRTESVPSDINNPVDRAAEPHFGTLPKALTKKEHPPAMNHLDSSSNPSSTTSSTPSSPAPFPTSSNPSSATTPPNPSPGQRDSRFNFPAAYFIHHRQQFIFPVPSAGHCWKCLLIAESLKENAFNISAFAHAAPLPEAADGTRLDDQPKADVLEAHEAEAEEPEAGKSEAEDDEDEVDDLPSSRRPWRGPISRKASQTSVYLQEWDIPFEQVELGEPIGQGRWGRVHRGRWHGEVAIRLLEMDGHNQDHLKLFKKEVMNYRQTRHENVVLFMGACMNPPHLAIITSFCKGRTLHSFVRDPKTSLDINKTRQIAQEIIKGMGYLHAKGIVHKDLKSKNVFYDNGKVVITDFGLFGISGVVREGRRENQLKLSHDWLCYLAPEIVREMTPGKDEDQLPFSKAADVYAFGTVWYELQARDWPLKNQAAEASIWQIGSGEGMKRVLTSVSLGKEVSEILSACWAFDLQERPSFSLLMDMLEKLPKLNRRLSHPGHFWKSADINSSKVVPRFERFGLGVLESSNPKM
The experiment in a line: Selectivity interaction (ActivX KiNativ screen (ex vivo kinase selectivity in human PBMCs)) EUB0001619a KSR1. The conditions noted are these: PBMC, at 1 µM. The class given is cell-based.

Structures are written as SMILES.

TGF-beta receptor type-2 (Homo sapiens), sequence (P37173 whole entry): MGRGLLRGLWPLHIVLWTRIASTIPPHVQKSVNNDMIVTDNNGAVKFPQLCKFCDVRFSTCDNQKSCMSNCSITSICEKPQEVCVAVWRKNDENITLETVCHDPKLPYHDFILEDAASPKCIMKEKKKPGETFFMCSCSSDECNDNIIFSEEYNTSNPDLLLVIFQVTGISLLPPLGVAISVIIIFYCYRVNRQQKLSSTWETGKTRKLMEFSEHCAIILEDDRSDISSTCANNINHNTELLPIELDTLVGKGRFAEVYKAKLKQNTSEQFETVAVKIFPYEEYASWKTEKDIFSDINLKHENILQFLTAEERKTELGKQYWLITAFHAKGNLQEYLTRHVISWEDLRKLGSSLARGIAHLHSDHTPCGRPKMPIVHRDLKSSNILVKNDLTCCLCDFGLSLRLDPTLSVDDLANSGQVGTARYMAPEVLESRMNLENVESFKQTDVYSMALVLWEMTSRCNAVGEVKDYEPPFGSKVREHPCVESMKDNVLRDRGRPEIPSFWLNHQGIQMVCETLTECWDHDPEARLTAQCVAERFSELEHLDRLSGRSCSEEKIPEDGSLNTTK
Cyclin-dependent kinase 8, sequence (P49336 whole entry): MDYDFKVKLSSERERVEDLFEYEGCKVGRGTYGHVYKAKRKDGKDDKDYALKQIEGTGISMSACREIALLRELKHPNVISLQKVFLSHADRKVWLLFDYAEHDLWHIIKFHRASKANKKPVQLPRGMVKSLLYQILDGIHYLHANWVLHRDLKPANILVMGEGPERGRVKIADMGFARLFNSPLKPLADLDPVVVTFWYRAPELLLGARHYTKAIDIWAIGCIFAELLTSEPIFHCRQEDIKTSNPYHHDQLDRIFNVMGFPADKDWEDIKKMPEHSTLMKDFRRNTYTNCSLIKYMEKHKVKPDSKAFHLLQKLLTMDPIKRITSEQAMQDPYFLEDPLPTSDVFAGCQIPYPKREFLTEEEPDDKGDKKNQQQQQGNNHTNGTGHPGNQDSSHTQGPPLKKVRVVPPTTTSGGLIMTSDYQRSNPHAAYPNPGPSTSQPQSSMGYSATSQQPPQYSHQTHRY
Calcium/calmodulin-dependent protein kinase kinase 2 (Homo sapiens), sequence (Q96RR4 2-588 limits assumed): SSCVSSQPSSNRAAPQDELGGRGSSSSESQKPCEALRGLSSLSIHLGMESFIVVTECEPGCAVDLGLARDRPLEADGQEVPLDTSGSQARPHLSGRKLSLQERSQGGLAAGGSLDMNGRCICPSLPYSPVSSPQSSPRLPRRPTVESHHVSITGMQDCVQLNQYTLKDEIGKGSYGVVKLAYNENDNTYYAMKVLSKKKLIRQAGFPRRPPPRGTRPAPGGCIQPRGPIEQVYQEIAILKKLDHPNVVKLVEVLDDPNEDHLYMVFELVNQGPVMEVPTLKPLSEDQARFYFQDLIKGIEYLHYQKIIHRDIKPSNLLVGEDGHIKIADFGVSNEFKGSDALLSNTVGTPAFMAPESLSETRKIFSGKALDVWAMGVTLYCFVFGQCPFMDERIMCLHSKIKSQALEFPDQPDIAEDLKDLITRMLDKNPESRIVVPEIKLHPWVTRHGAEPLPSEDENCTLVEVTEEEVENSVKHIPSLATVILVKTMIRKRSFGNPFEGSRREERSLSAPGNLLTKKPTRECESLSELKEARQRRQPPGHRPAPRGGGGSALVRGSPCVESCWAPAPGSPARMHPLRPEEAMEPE
Mitogen-activated protein kinase 10, sequence (P53779 whole entry): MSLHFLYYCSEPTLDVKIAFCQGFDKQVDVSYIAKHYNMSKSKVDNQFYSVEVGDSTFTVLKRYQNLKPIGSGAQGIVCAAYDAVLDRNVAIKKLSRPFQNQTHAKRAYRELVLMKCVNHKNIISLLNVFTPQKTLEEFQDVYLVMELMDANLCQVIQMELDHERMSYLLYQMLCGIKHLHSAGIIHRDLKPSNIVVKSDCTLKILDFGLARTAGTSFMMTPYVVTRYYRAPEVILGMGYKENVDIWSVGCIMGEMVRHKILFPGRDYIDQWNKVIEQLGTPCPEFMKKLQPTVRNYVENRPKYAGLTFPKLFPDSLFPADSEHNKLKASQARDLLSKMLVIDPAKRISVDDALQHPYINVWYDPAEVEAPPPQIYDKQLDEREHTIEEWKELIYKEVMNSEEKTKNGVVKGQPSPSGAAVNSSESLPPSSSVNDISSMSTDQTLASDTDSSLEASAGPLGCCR

`Cc1cc([C@@H](C)Nc2ccccc2C(=O)O)c2nc(N3CCOCC3)cc(=O)n2c1` [AZD-6482]: in test [1], the % of control amounted to 95%.
Compound `Cn1cc(-n2cnc3c(NCc4nc5cc(Cl)c(Cl)cc5[nH]4)nc(N4CCOCC4)nc32)cn1` returned a % of control in test [2] of 0.256%. Besides, the % of inhibition in test [3] was -2.22%.
Regarding `Cc1cc(C)cc([C@H]2c3cc(C)ccc3NC(=O)CN2C(=O)c2ccc(Br)s2)c1`, the % of activity in test [4] (at 1 µM) is 102%; in test [4] (at 10 µM), 96.7%.
In test [5], `CNC(=O)Nc1ccc(-c2nc(N3CC4CCC(C3)O4)c3cnn(C4CCC5(CC4)OCCO5)c3n2)cc1` showed a % of control of 76%.
Consider `COc1cc(N(C)c2ccnc3ccc(C(F)(F)F)cc23)cc(OC)c1OC`, for which the % binding in test [6] was determined as 85%.
With `N#Cc1cccc(-c2c[nH]c3ncnc(N4CCOCC4)c23)c1`, the figures for the % of inhibition in test [7] and in test [8] were 36% and 12%, respectively.
